Measured values: patent publication US9719981B2, “RAC1 inhibitors for the treatment of alport glomerular disease” (Father Flanagan's Boys' Home, priority 2012, dated 2017)

Tests used:
[1] = system: primary cultured mesangial cells; assay: Boyden chamber (Transwell) cell migration assay, wild type mesangial cells; format: cell-based, mouse; conditions: relative to 10% FCS, p<0.05
Protocol: MES Migration (insert). Transwell cell migration assays were performed as described by Daniel et al. (Daniel et al., 2012, Lab Invest; 92(6): 812-26) with some modifications. 8 micron, 24-well plate control inserts (BD Bioscience, Bedford, Mass.) were coated overnight at 4° C. with 100 μl of 0.1% gelatin/PBS then washed 1× with PBS. MES cultures were incubated in 1% FCS overnight, then 0.05% BSA-containing media for at least 8 hours, washed 1× with PBS and carefully tryspinized to ensure a single cell suspension and limited “clumping” of cells. After serum-neutralization and subsequent centrifugation, ˜100,000 cells were resuspended in 1.5 mls of 0.05% BSA media containing activators/inhibitors. The wells of a 24-well plate were filled with 0.75 mls of 10% FCS-containing media plus activators/inhibitors (excluding 0.05% BSA control well). 0.5 ml of cell-suspension was loaded into the gelatin-coated insert and the insert placed in a well. Wells were visually inspected for bubbles beneath insert and equal distribution of cell-suspension. Cells were allowed to migrate overnight (˜18 hrs). Using a moistened cotton swab, non-migrated cells were liberated from the apical-side of the insert by gentle but firm rubbing. A second swab repeated the removal and was followed by a single wash with PBS. Inserts were fixed, stained and washed (2×) in companion 24 well plate(s) containing 0.5 mls MEOH, 0.5 mls 1% Toluidine Blue in 1% Borax and 0.5 mls distilled H2O, respectively. Inserts were air dried and counted at 100× magnification. Five fields were counted on each insert including one center and four periphery areas. Data was expressed as relative to 10% FCS control well (set equal to one).

[2] = system: cultured wild type mesangial cells; assay: LPS-induced actin cytoskeletal rearrangement (phalloidin staining); format: cell-based, mouse; conditions: 10 ng/ml LPS; 10 μM Rac-1 inhibitor or 1 μM CDC42 inhibitor; blinded
Protocol: Activation of mesangial cell cultures by treatment with LPS. Sub-confluent mesangial cells were tryspinized; plated at low density on Rat tail type 1 collagen (BD Biosciences) coated cytology slides (VWR) and incubated overnight in 1% FCS-containing media. One hour after the addition of serum-free media, 1 μM CDC42 Inhibitor (KSC-23-233) and 10 μM Rac-1 Inhibitor, NSC-23766 (Tocris) were added to individual slides and allowed to incubate for an additional hour. 10 ng/ml Lipopolysaccharides (Sigma-Aldrich) was added to cells, incubated 1 hour, fixed in ice cold acetone for 5 minutes and allowed to air dry ˜2 hours. Cells were stained with a 1:100 dilution of antibodies specific for CDC42 (10155-1-AP, PROTEINTECH™), and phalloidin (Molecular Probes) imaged. Untreated, LPS alone and LPS plus inhibitors treatments were repeated on two different derivations of primary mesangial cells with qualitatively consistent results.

[3] = system: integrin α1-null mesangial cells; assay: Boyden chamber (Transwell) cell migration assay, integrin α1-null mesangial cells; format: cell-based, mouse; conditions: relative to 10% FCS
Protocol: MES Migration (insert). Transwell cell migration assays were performed as described by Daniel et al. (Daniel et al., 2012, Lab Invest; 92(6): 812-26) with some modifications. 8 micron, 24-well plate control inserts (BD Bioscience, Bedford, Mass.) were coated overnight at 4° C. with 100 μl of 0.1% gelatin/PBS then washed 1× with PBS. MES cultures were incubated in 1% FCS overnight, then 0.05% BSA-containing media for at least 8 hours, washed 1× with PBS and carefully tryspinized to ensure a single cell suspension and limited “clumping” of cells. After serum-neutralization and subsequent centrifugation, ˜100,000 cells were resuspended in 1.5 mls of 0.05% BSA media containing activators/inhibitors. The wells of a 24-well plate were filled with 0.75 mls of 10% FCS-containing media plus activators/inhibitors (excluding 0.05% BSA control well). 0.5 ml of cell-suspension was loaded into the gelatin-coated insert and the insert placed in a well. Wells were visually inspected for bubbles beneath insert and equal distribution of cell-suspension. Cells were allowed to migrate overnight (˜18 hrs). […] Inserts were air dried and counted at 100× magnification. Five fields were counted on each insert including one center and four periphery areas. Data was expressed as relative to 10% FCS control well (set equal to one).

[4] = system: Alport mice on the 129 Sv background; assay: Treatment of Alport mice with Rac1 inhibitor; format: in vivo, mouse; conditions: injected once daily from 2 weeks to 6 weeks of age; relative to saline
Protocol: FIG. 9. Treatment of Alport mice with Rac1 inhibitors partially ameliorates mesangial cell process invasion of the glomerular capillary tufts. […] Kidney cryosections were analyzed by dual immunofluorescence immunostaining using antibodies against either laminin α2 (B and E) or integrin α8 (A and D). […] represent a merging of results from staining with laminin α2 and integrin α8. The degree of mesangial process invasion of the glomerular capillary tufts was ameliorated in the Rac1 inhibitor-treated mice relative to mice injected with saline.
To examine the effect of Rac1 inhibitors on Alport glomerular disease progression, either wild type or Alport mice were treated with inhibitors by IP injection from 2 weeks to 6 weeks of age. Glomeruli were examined for mesangial process invasion of the capillary tufts by dual immunofluorescence microscopy using antibodies specific for either integrin α8 or the GBM marker laminin α5. […] Combined, the data in FIG. 7, FIG. 8, and FIG. 9 confirm that mesangial process invasion of the glomerular capillaries is a Rac1-dependent process, and that Rac1 activation is attenuated by integrin α1 deletion both in vitro and in vivo.
Immunofluorescence microscopy. Fresh frozen kidneys were sectioned at 8 μm and acetone fixed. […]

CCN(CC)CCCC(C)Nc1nc(C)cc(Nc2ccc3nc(C)cc(N)c3c2)n1 (stereo not shown) [NSC 23766]
Migration of wild type mesangial cells [1]: significantly reduced
LPS-induced morphological change (filopodia / actin spikes) in presence of inhibitor [2]: could not be distinguished in blinded experiments form untreated wild type mesangial cells
Integrin α1-null mesangial cell migration [3]: unaffected
Degree of mesangial process invasion of the glomerular capillary tufts [4]: ameliorated
